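Assay format: 96-well plates, 48-hour exposure. At the GI50, growth is halved.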 Activity calls are given as the source filed them. Cut-off read from the data, not from the text of the source: active = GI50 up to about 1.1 µM and inactive = higher.
Columns and labels:
Experiment in all cases: NCI tumour cell line growth inhibition, 48 h
[1] = test system: SNB-75
[2] = test system: SK-MEL-2
[3] = test system: TK-10
[4] = test system: UACC-62
[5] = test system: RPMI-8226
[6] = test system: HOP-62
[7] = test system: OVCAR-5
[8] = test system: HT-29
[9] = test system: ACHN
[10] = test system: UACC-257
[11] = test system: M14
[12] = test system: NCI-H226
[13] = test system: EKVX
[14] = test system: IGROV-1
[15] = test system: SK-MEL-28
[16] = test system: HCT-116

Measured: GI50

C[C@]12CCC(=O)C=C1CC[C@@H]1[C@@H]2CC[C@]2(C)C(=O)NC(=O)C[C@@H]12
inactive: [1] > 100 µM | [2] > 100 µM | [3] > 100 µM | [4] > 100 µM | [5] > 100 µM | [6] > 100 µM | [7] > 100 µM | [8] > 100 µM | [9] > 100 µM | [10] > 100 µM | [11] > 100 µM | [12] > 100 µM | [13] > 100 µM | [14] > 100 µM | [15] > 100 µM | [16] > 100 µM

CC(C)(C)c1cc(Oc2ccc(C#N)c(C#N)c2)cc(C(C)(C)C)c1
inactive: [1] > 100 µM | [2] > 100 µM | [3] > 100 µM | [4] > 100 µM | [5] > 100 µM | [6] > 100 µM | [7] > 100 µM | [8] > 100 µM | [9] > 100 µM | [10] > 100 µM | [11] > 100 µM | [12] > 100 µM | [13] > 100 µM | [14] > 100 µM | [15] > 100 µM | [16] 68.1 µM

COc1cccc(-c2cc(C(=O)Nc3ccc(Cl)cc3)nc(N)n2)c1
inactive: [1] 21.4 µM | [2] > 100 µM | [3] > 100 µM | [4] 42.6 µM | [5] 53.1 µM | [6] > 100 µM | [7] > 100 µM | [8] 45.5 µM | [9] > 100 µM | [10] 81.1 µM | [11] 37.3 µM | [12] > 100 µM | [13] > 100 µM | [14] 50.7 µM | [15] 86.9 µM | [16] 42.9 µM

C/C(=N\NC(N)=O)C(CN1CCCCC1)C(c1ccccc1)c1c(O)c2ccccc2oc1=O (stereo not given)
inactive: [1] > 100 µM | [2] > 100 µM | [3] > 100 µM | [4] > 100 µM | [5] > 100 µM | [6] > 100 µM | [7] > 100 µM | [8] > 100 µM | [9] > 100 µM | [10] > 100 µM | [11] > 100 µM | [12] > 100 µM | [13] > 100 µM | [14] > 100 µM | [15] > 100 µM | [16] > 100 µM

CCNC(=O)C#CC(=O)NCC
inactive: [1] > 69 µM | [2] > 100 µM | [3] > 100 µM | [4] > 100 µM | [5] > 42.4 µM | [6] > 100 µM | [7] > 100 µM | [8] > 100 µM | [9] > 100 µM | [10] > 100 µM | [11] > 100 µM | [12] > 10 µM | [13] > 100 µM | [14] > 100 µM | [15] > 10 µM | [16] 21.9 µM

Source: ChEMBL document CHEMBL1201862, “PubChem BioAssay data set” (2004)
